Consider twelve compounds from patent publication US20070054887A1, “Methods for treating bladder dysfunction” (BioXell S.p.A, priority 2003, published 2007).

The subject of series [1] is BPH cells. Particulars: previously found, cited from earlier work; for BPH cell proliferation: also counteracted mitogenic activity of KGF and IGFI.
For series [2], the system named is human bladder cells. As to the kind of experiment: inhibition of basal human bladder cell growth. It counts as cell-based. Particulars: for IC50: Homo sapiens.
A short description of series [3]: maximum tolerated dose (MTD) in rats. It counts as in vivo. To be noted: rat, in vivo, read-out: MTD. The source says:
The maximum tolerated dose (MTD) in rats is also listed for each compound.

In series [4] the test system is rats with CYP-induced cystitis. As to the kind of experiment: cyclophosphamide (CYP) induced chronic cystitis in rats: conscious cystometry. It counts as in vivo, Wistar rats. More on the design: amplitude of NVBC (amplitude of non-voiding bladder contraction): unit not given here. The source says:
The rat model of chemical cystitis induced by intraperitoneal injection of CYP has been well accepted. CYP is used in clinical practice in the treatment of a number of malignant tumors. One of its metabolites, acrolein, is excreted in urine in large concentrations causing hemorrhagic cystitis associated with symptoms of urinary frequency, urgency and pelvic pain. The inflammatory process is characterized by changes in gross histology of bladder, increase in number and distribution of inflammatory cell infiltrates (mast cells, macrophage, PMNs), cyclo-oxygenase-2 expression and prostaglandin production, growth factor and cytokine production. The rat model of chemical cystitis closely resembles interstitial cystitis, a chronic, painful urinary bladder syndrome and has been used for the testing of therapeutic agents in the past.
This model was used to test the effects of 1,25-dihydroxyvitamin D3 analogue in rats with CYP-induced cystitis. The effects of the treatment on the cystometric parameters in a conscious freely moving rat with CYP-induced cystitis were monitored. The following cystometric parameters were recorded in each animal:
Animals: Wistar rats weighing 125-175 g were used. […] Following recovery all animals received three intraperitoneal injections of CYP and subsequently were divided into the treatment and sham control groups.
Treatment group: Rats treated with oral 1,25-dihydroxyvitamin D3 analogue 1,3-di-O-acetyl-1,25-dihydroxy-16,23Z-diene-26,27-hexafluoro-19-nor-cholecalciferol (“Compound C”) for 14 days (daily dose of 0.1 μg/kg) [drawing 138]
Cystometry was performed 24 hours following the last dose of the drug or vehiculum on awake freely moving animals.
A lower midline abdominal incision was performed under general inhalation anesthesia (isoflurine with O2) and polyethylene tubing (PE-50, Clay Adams, Parsippany, N.J.) with the end flared by heat was inserted into the dome of the bladder and secured in place with a 6-0 prolene purse string suture. The distal end of the tubing was heat-sealed, tunneled subcutaneously and externalized at the back of the neck, out of the animal's reach. Abdominal and neck incisions were closed with 4-0 nylon sutures.
Following recovery (5 days) subject animals underwent three intraperitoneal injections of CYP (Sigma Chemical, St. Louis, Mo.; 75 mg/kg each, intraperitoneal) over the period of nine days. On the tenth day following the first CYP injection the sham control animals received the vehicle only, whereas the experimental group were treated with the 1,25-dihydroxyvitamin D3 analogue 1,3-di-O-acetyl-1,25-dihydroxy-16,23Z-diene-26,27-hexafluoro-19-nor-cholecalciferol “Compound C” (delivered using gavage). Two weeks following the initiation of the treatment animals underwent a conscious cystometrogram to assess the function of the urinary bladder.
An animal was placed unrestrained in a cage and the catheter was connected via a T-tube to a pressure transducer (Grass® Model PT300, West Warwick, R.I.) and microinjection pump (Harvard Apparatus 22, South Natick, Mass.). A 0.9% saline solution was infused at room temperature into the bladder at a rate of 10 ml/h. Intravesical pressure was recorded continuously using a Neurodata Acquisition System (Grass® Model 15, Astro-Med, Inc, West Warwick, R.I.). At least three reproducible micturition cycles were recorded after the initial stabilization period of 25-30 min.

The test system of series [5] is hBC. Briefly: androgen-stimulated hBC growth, 48 h incubation. It counts as cell-based, human. To be noted: DHT 10 nM, Compound A 1 nM, finasteride 1 nM, FIG. 5. An excerpt:
Results are expressed as percentage variation (mean±SEM) over their relative controls and derived from at least three different experiments obtained from three distinct hBC cell preparations. *P<0.05 (vs. control); °P<0.01 (vs. androgen-treated cells).

The mark [6] stands for this setting: drug treated animals versus vehicle, 0.1 μg/kg oral 14 days.
Setting [7] is: oral 0.1 μg/kg daily for 14 days, individual rats, three micturition cycles each.

Each structure is given as a SMILES string. Where “and” joins values, the source holds several entries; their conditions need not be identical. Identical values can stand only once.

In the case of `C=C1CC[C@H](O)C/C1=C/C=C1\CCC[C@]2(C)[C@@H]([C@H](C)CCCC(C)C)CC[C@@H]12` [vitamin D3, reference compound], the BPH cell proliferation entry in series [1] is on record as “inhibited”.
Usually IC50 stands for the concentration that inhibits the measured activity by half. For orientation: MTD means the largest dose that counted as tolerated. `CC(=O)OC1C/C(=C/C=C2\CCC[C@]3(C)C(C(C)C/C=C\C(O)(C(F)(F)F)C(F)(F)F)=CCC23)C[C@@H](OC(C)=O)C1` (stereo partly shown) [Compound C, 1,3-di-O-acetyl-1,25-dihydroxy-16,23Z-diene-26,27-hexafluoro-19-nor-cholecalciferol]: the IC50 in series [2] was 0.0398 µM. For the same compound, the MTD in series [3] amounted to 0.1 µg/kg. Further, in series [4] (setting [6]), the “amplitude of non-voiding bladder contractions, change versus control” value is on record as “Dramatic reductions”; the “bladder capacity, change versus control” value is listed as “did not result in a change”; the “filling pressure, change versus control” value is on record as “statistically significant reductions”; the “number of non-voiding bladder contractions, change versus control” value is “Dramatic reductions”. Moreover, the “threshold pressure, change versus control” value in series [4] (setting [6]) is reported as “statistically significant reductions”. Besides, the “Bl. Cap. (bladder capacity)” value in series [4] (oral 0.1 μg/kg daily for 14 days, individual rats RB7, RB13, RB15, three micturition cycles each) is 1.9 ml and 1.3 ml (2×) and 2.5 ml and 1.5 ml and 0.7 ml (2×) and 0.8 ml and 1.4 ml. Moreover, in series [4] (setting [7]), the “# of NVBC (number of non-voiding bladder contractions)” value is 4 and 8 (2×) and 0 (6×); the “FP (filling pressure)” value was 15 cmH2O and 14 cmH2O (3×) and 12 cmH2O and 11 cmH2O and 10 cmH2O and 13 cmH2O (2×); the “MP (micturition pressure)” value is 105 cmH2O and 97 cmH2O (2×) and 90 cmH2O and 100 cmH2O and 108 cmH2O and 98 cmH2O and 101 cmH2O and 104 cmH2O; the “TP (threshold pressure)” value is 16 cmH2O and 17 cmH2O and 14 cmH2O (4×) and 12 cmH2O and 11 cmH2O and 15 cmH2O. Further, the “amplitude of NVBC (amplitude of non-voiding bladder contraction)” value in series [4] (setting [7]) is 10 and 11 (2×) and 0 (6×).
Turning to `CC(C)(C)NC(=O)[C@H]1CC[C@H]2[C@@H]3CC[C@H]4NC(=O)C=C[C@]4(C)[C@H]3CC[C@]12C` [finasteride, reference compound], in series [5], the “hBC proliferation stimulated by the androgen DHT” value is recorded as “no significant effect”.
Take `C=C1/C(=C\C=C2/CCC[C@]3(C)C([C@H](C)CC#CC(C)(C)O)=CC[C@@H]23)C[C@@H](O)C[C@@H]1O` [Compound B, 1,25-dihydroxy-16-ene-23-yne cholecalciferol]: the “inhibition of bladder cell growth” value in series [2] (stimulated and basal bladder cell growth, FIG. 4, in some cases significantly greater than anti-androgens such as finasteride) is listed as “demonstrated”. Further, the BPH cell proliferation result in series [1] is given as “inhibited”. Further, the “apoptosis in BPH cells” value in series [1] (unstimulated and KGF-stimulated BPH cells) is “induced”.
In the case of `CC(=O)OC1C/C(=C/C=C2\CCC[C@@]3(C)C2CCC3C2(CC#CC(OC(C)=O)(C(F)(F)F)C(F)(F)F)CC2)C[C@@H](OC(C)=O)C1` (stereo partly shown) [1,3,25-Tri-O-acetyl-1,25-dihydroxy-20-cyclopropyl-23-yne-26,27-hexafluoro-19-nor-cholecalciferol], 0.0398 µM corresponded to half-maximal inhibition in series [2] (IC50). Also, the MTD in series [3] came to 10 µg/kg.
In series [2], `CC(=O)OC1C/C(=C/C=C2\CCC[C@@]3(C)C2CCC3C2(CC#CC(O)(C(F)(F)F)C(F)(F)F)CC2)C[C@@H](OC(C)=O)C1` (stereo partly shown) [1,3-Di-O-acetyl-1,25-dihydroxy-20-cyclopropyl-23-yne-26,27-hexafluoro-19-nor-cholecalciferol] gave an IC50 of 0.0012 µM. In addition, the MTD in series [3] amounted to 10 µg/kg.
In series [2], `[2H]C([2H])([2H])C(O)(CCC[C@@H](CC#CC(O)(C(F)(F)F)C(F)(F)F)C1CCC2/C(=C/C=C3C[C@@H](O)C[C@H](O)C3)CCC[C@@]21C)C([2H])([2H])[2H]` (stereo partly drawn) [1,25-Dihydroxy-21(3-hydroxy-3-trifluoromethyl-4-trifluoro-butynyl)-26,27-hexadeutero-19-nor-20S-cholecalciferol] showed an IC50 of 31600 µM. In addition, the MTD in series [3] came to 0.2 µg/kg.
For `C=C1/C(=C\C=C2/CCC[C@]3(C)C(C(C)CC#CC(O)(C(F)(F)F)C(F)(F)F)=CCC23)CC(OC(C)=O)C[C@@H]1OC(C)=O` (stereo partly shown) [1,3-Di-O-acetyl-1,25-dihydroxy-16-ene-23-yne-26,27-hexafluoro-cholecalciferol], in that order: 0.002 µM and 10 µg/kg.
As for `CC(=O)OC1C/C(=C/C=C2\CCC[C@@]3(C)C2CCC3C2(C/C=C/C(O)(C(F)(F)F)C(F)(F)F)CC2)C[C@@H](OC(C)=O)C1` (stereo partly shown) [1,3-Di-O-acetyl-1,25-dihydroxy-20-cyclopropyl-23E-ene-26,27-hexafluoro-19-nor-cholecalciferol], the midpoint of inhibition in series [2], the IC50, lay at 0.00158 µM. The MTD in series [3] was determined as 0.3 µg/kg.
For `C=C1/C(=C\C=C2/CCC[C@]3(C)C(C4(CC#CC(O)(C(F)(F)F)C(F)(F)F)CC4)=CCC23)CC(O)C[C@@H]1O` (stereo partly drawn) [1α,25-Dihydroxy-16-ene-20-cyclopropyl-23,24-yne-26,27 hexafluoro cholecalciferol], in that order: 3550 µM and 0.3 µg/kg.
On the same counts, the results for `C=C1/C(=C\C=C2/CCC[C@@]3(C)C2CCC3C(CCCC(C)(C)O)CCC(O)C(C)(C)O)C[C@@H](O)C[C@@H]1O` (stereo partly drawn) [1,25-Dihydroxy-21-(2R,3-dihydroxy-3-methyl-butyl)-20R-Cholecalciferol] are 24 µM and 30 µg/kg.
For `CC(=O)OC1C/C(=C/C=C2\CCC[C@]3(C)C(C(C)CCCC(C)(C)O)=CCC23)C[C@@H](OC(C)=O)C1` (stereo partly shown) [1,3-Di-O-acetyl-1,25-dihydroxy-16-ene-19-nor-cholecalciferol], in that order: 0.000631 µM and 3 µg/kg.
